Reference: US20060127980A1, “Human excitatory amino acid transporter-2 gene promoter and uses thereof” (priority 2003, published 2006)
Starred links: 1 amine or outer side, 2 acyl side, 3 side chain; linkers in the order of their positions; H or OH if unused. Positions of bridges follow the written chain, without caps; N, C: chain ends. Non-standard residues stand in square brackets, D forms with d. Residues, ends and D or L forms follow the SMILES beside them. Chains are numbered I, II in the order given. Actinocin(9to1) = Cc1c2oc3c(C)ccc(C(=O)[*:1])c3nc-2c(C(=O)[*:2])c(N)c1=O; NMeV = CN[C@H](C(=O)O)C(C)C; Sar = CNCC(=O)O

Legend:
rat astrocytes = conditions: Zelenaia et al., 2000; cited from earlier work
hEAAT2 promoter [1] = assay: hEAAT2 promoter luciferase assay of agents in PHFA-Im (FIG. 11); format: cell-based, human; conditions: 10 μM
Protocol: (§1) FIG. 11. Effect of various agents on hEAAT2 promoter activity in immortalized primary human fetal astrocytes (PHFA-Im). A: ceftriaxone; B: amoxicillin; C: chloramphenicol; D: thiamphenicol; E: vancomycin; F: glycine; G: glutamate; H: DMSO; I: dibutyryl cAMP. PHFA-Im is a human telomerase-immortalized clone of primary human fetal astrocytes. PHFA-Im cells were seeded at 5×10^4 cells/35-mm plate. Twenty-four h later cells were untreated (CON) or received the indicated compound at a final concentration of 10 μM. Forty-eight h later the cells were transfected with a FL pGL3/EAAT2 luciferase reporter construct (5 μg) plus a pSVβGalactosidase construct (1 μg) using the calcium phosphate precipitation method (Su et al. 2003, Proc. Natl. Acad. Sci. USA 100:1955-1960). After an additional 48 h, cell lysates were prepared and luciferase activity was determined using the Luciferase Assay System Kit (Promega, E1501) and luminescence determined using a luminometer (Turner Designs, TD20/20) (Su et al. 2003, Proc. Natl. Acad. Sci. USA 100:1955-1960). Data presented are the average of 3 independent plates±S.D. Qualitatively similar results were obtained in 2 additional experiments.
as §1, with “The effects” for “FIG. 11. Effect”, “these same” for “various”, “also were examined” for “on hEAAT2 promoter activity”, “two other cell lines to confirm the generality of the findings. […] PHFA-Im is a cell line developed from a clonal isolate of a” for “immortalized”, “astrocyte immortalized by transformation with the reverse transcriptase subunit of” for “astrocytes (PHFA-Im). A: ceftriaxone; B: amoxicillin; C: chloramphenicol; D: thiamphenicol; E: vancomycin; F: glycine; G: glutamate; H: DMSO; I: dibutyryl cAMP. PHFA-Im is a”, “telomerase.” for “telomerase-immortalized clone of primary human fetal astrocytes.”

hEAAT2 promoter [2] = assay: hEAAT2 promoter luciferase assay of agents in PHFA (FIG. 10); format: cell-based, human; conditions: PHFA passage #3; 10 μM
Protocol: as §1, with “10.” for “11.”, “on” for “in immortalized”, “(PHFA).” for “(PHFA-Im).”, “PHFA (passage #3)” for “PHFA-Im is a human telomerase-immortalized clone of primary human fetal astrocytes. PHFA-Im cells”, “1×10^5” for “5×10^4”
as §1, with “Identification of Agents that Modulate hEAAT2 Promoter Activity. FIGS. 10-12 show the effects” for “FIG. 11. Effect”, “PHFA (FIG. 10),” for “immortalized primary human fetal astrocytes (PHFA-Im). A: ceftriaxone; B: amoxicillin; C: chloramphenicol; D: thiamphenicol; E: vancomycin; F: glycine; G: glutamate; H: DMSO; I: dibutyryl cAMP.”, “(FIG. 11) and H4 glioma (FIG. 12) cells. In the studies shown in FIG. 10, PHFA (passage #3)” for “is a human telomerase-immortalized clone of primary human fetal astrocytes. PHFA-Im cells”, “1×10^5” for “5×10^4”

hEAAT2 promoter [3] = assay: hEAAT2 promoter luciferase assay of agents in H4 glioma cells (FIG. 12); format: cell-based, human; conditions: H4 malignant glioma cells; 10 μM
Protocol: as §1, with “12.” for “11.”, “H4” for “immortalized primary”, “malignant glioma cells.” for “fetal astrocytes (PHFA-Im).”, “H4” for “PHFA-Im”, “rare” for “human telomerase-immortalized”, “malignant glioma cells that support hEAAT2 promoter activity. H4” for “primary human fetal astrocytes. PHFA-Im”
H4, the third cell line examined, is a rare clone of malignant glioma cells that support hEAAT2 promoter activity. In the studies shown in FIG. 12, H4 cells were seeded at 5×10^4 cells/35-mm plate. Twenty-four h later cells were untreated (CON) or received the indicated compound at a final concentration of 10 μM. Forty-eight h later the cells were transfected with a FL pGL3/EAAT2 luciferase reporter construct (5 μg) plus a pSVβGalactosidase construct (1 μg) using the calcium phosphate precipitation method (Su et al. 2003, Proc. Natl. Acad. Sci. USA 100:1955-1960). After an additional 48 h, cell lysates were prepared and luciferase activity was determined using the Luciferase Assay System Kit (Promega, E1501) and luminescence determined using a luminometer (Turner Designs, TD20/20) (Su et al. 2003, Proc. Natl. Acad. Sci. USA 100:1955-1960). Data presented are the average of 3 independent plates±S.D. Qualitatively similar results were obtained in 2 additional experiments.

Row | SMILES | toxicity (rat astrocytes) | hEAAT2 promoter activity (hEAAT2 promoter [1]) | hEAAT2 promoter activity (hEAAT2 promoter [2]) | hEAAT2 promoter activity (hEAAT2 promoter [3])
1 | Cc1c2oc3c(C)ccc(C(=O)N[C@@H]4C(=O)N[C@H](C(C)C)C(=O)N5CCC[C@H]5C(=O)N(C)CC(=O)N(C)[C@@H](C(C)C)C(=O)O[C@@H]4C)c3nc-2c(C(=O)N[C@@H]2C(=O)N[C@H](C(C)C)C(=O)N3CCC[C@H]3C(=O)N(C)CC(=O)N(C)[C@@H](C(C)C)C(=O)O[C@@H]2C)c(N)c1=O [actinomycin D] (I: T[dV]P[Sar][NMeV] / II: T[dV]P[Sar][NMeV]; ester I:1-I:C, II:1-II:C; linker I:N-II:N via Actinocin(9to1)) | toxic | – | – | –
2 | CO/N=C(\C(=O)N[C@@H]1C(=O)N2C(C(=O)O)=C(CSc3nc(=O)c(=O)[nH]n3C)CS[C@H]12)c1csc(N)n1 [ceftriaxone] | – | potent stimulators | potent stimulators | potent stimulators
3 | O=C(N[C@H](CO)[C@H](O)c1ccc([N+](=O)[O-])cc1)C(Cl)Cl [chloramphenicol] | – | potent stimulators | potent stimulators | potent stimulators
4 | CS(=O)(=O)c1ccc([C@@H](O)[C@@H](CO)NC(=O)C(Cl)Cl)cc1 [thiamphenicol] | – | potent stimulators | potent stimulators | potent stimulators
